# Columns and labels:
# NCI-H1373 cells = test: NCI-H1373 cell proliferation inhibition assay; type: cell-based; details: Homo sapiens, NCI-H1373, 144 h; 6 days of incubation, Cell Titer Blue
# Protocol: Human lung adenocarcinoma cells NC-H1373 (ATCC, CRL-5866M) were cultured in a cell incubator at 37° C. and 5% CO2 using RPMI-1640 medium containing 10% FBS and 1% […]. The cells in the logarithmic growth phase were counted by digestion and inoculated in a 96-well plate at 1500 NCI-H1373 per well, and the plate was placed in an incubator overnight. The next day, test compounds were formulated in 10 mM stock solution by using DMSO and 3-fold diluted in gradient from a maximum concentration of 10 μM by using RPMI-1640 medium, and 10 gradient concentrations were set with 2 parallel wells per concentration gradient. After 6 days of incubation, 100 μL of Cell Titer Blue working solution was added to each well and the chemiluminescence value was read in a microplate reader. IC50 was calculated using GraphPad Prism7.0 software.
# PARP7 = PARP7 (Homo sapiens (Human), UniProt Q7Z3E1); test: Enzymatic biochemical assay of PARP (chemiluminescence detection kit), PARP7; details: read-out: Inhibitory activity against PAPR7 (IC50)
# Chain of PARP7 (Q7Z3E1 whole entry): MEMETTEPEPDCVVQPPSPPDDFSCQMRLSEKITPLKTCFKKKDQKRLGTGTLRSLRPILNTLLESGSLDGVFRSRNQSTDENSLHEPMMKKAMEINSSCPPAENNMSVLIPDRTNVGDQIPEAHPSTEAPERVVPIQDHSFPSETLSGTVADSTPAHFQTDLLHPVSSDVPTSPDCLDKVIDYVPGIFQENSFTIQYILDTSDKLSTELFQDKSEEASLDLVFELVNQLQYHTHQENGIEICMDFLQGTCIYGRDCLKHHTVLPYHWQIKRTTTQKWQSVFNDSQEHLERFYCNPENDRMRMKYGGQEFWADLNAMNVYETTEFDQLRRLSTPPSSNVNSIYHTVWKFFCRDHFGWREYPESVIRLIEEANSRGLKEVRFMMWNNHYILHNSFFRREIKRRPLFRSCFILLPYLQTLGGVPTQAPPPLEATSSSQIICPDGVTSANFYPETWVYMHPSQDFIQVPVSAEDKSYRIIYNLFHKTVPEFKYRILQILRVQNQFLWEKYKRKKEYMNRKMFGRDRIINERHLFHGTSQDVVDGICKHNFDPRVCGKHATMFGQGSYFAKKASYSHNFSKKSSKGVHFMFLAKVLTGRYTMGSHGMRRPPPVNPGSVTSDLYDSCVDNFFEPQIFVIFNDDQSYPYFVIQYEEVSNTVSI
# Protocol: This assay adopted PARP1, TNKS1, TNKS2, PARP7 and PARP14 chemiluminescence detection kits (BPS, Cat No. 80551/80552/80573/80578/79729/80568) for enzymatic biochemical assay of PARP. The specific scheme was as follows: the 1× histone mixture was added to a 96-well plate at 50 μL per well, and the plate was incubated overnight at 4° C. The next day, after the plate was washed with PBST, 200 μL of blocking buffer per well was added, and the plate was incubated for 90 min. After the plate was washed with PBST again, 5 μL of inhibitor, 20 μL of 1×PARP buffer and 25 μL of […] were added to each well, and the plate was incubated at room temperature for 30 min. After the plate was washed with PBST, 100 μL of Elisa ECL substrate A and B mixture was added to each well, chemiluminescence value was immediately read using a plate reader, and IC50 values were calculated.
# [1] = Metabolic stability in liver microsome; type: in vitro ADME; details: liver microsomes; 0.5 mg/mL CD1 mouse liver microsome, 0.5 μM test compound, NADPH and UDPGA, 37° C.
# Protocol: 0.5 mg/mL CD1 mouse liver microsome solution, 0.5 μM test compound, 1.0 mM reduced nicotinamide adenine dinucleotide phosphate (NADPH), and 1.0 mM uridine diphosphate-A-glucuronic acid (UDPGA) were added to the incubation plate and mixed, and the plate was incubated at 37° C. for 0, 30, 60, 120 min separately. The positive control group was set as 0.5 μM CYP3A4 probe substrate-testosterone and 0.5 μM UGT probe substrate-7-hydroxycoumarin incubated with microsomes for 0 and 120 min in the presence of NADPH and UDPGA; the negative control group (NC) was set as the test substance incubated with microsomes for 0 and 120 min without any coenzyme. After the reaction was terminated by adding pre-cooled methanol at each termination time, the reaction mixture was centrifuged at 4000 rpm for 10 min, the supernatant was taken and the remaining amount of the parent drug in the sample was measured by LC-MS/MS, the results of which are shown in Table 4.
# MDR1 = test: MDCKII-MDR1 cell permeability assay; type: in vitro ADME; details: dog, MDCK-MDR1, 1 μM test compound; for Papp A→B at 2 h, 1 μM: apical to basolateral; for Papp B→A at 2 h, 1 μM: basolateral to apical
# Protocol: 50 μL of MDCKII-MDR1 cell suspension with a density of 1.56×10^6 cells/mL was seeded into a Transwell well of a 96-well plate, and the plate was cultured in a cell incubator at 37° C. in 5% CO2. […] The medium in Transwell was discarded, and HBSS equilibration solution was added and incubated at 37° C. for 30 min. Subsequently, an apical to basolateral drug transport rate assay was performed by adding 1 μM test compound solution to the Transwell AB side and a blank equilibration solution to the BL side. When the basolateral to apical drug transport rate assay was performed, the operation steps were reversed. Subsequently, the cells were placed in an incubator for 2 h. After the incubation, samples were taken from the basolateral and apical respectively, and after centrifugation, the supernatant was subjected to LC-MS/MS analysis, and the apparent permeability coefficient (Papp) was calculated, the results of which are shown in Table 5.
Structure (SMILES),IC50 (NCI-H1373 cells) [nM],IC50 (PARP7) [nM],further results
"[2H]C([2H])(OC[C@H](C)Nc1cn[nH]c(=O)c1C(F)(F)F)c1cc2n(n1)CCN(c1ncc(C(F)(F)F)cn1)C2([2H])[2H] [Compound 2, (S)-4-(trifluoromethyl)-5-((1-((5-(5-(trifluoromethyl)pyrimidin-2-yl)-4,5,6,7-tetrahydropyrazolo[1,5-a]pyrazin-2-yl-4,4-d2)methoxy-d2)propan-2-yl)amino)pyridazin-3(2H)-one]",< 50,,
"C[C@H](OC[C@H](C)Nc1cn[nH]c(=O)c1C(F)(F)F)c1cc2n(n1)CCN(c1ncc(C(F)(F)F)cn1)C2 [Compound 3-I, 4-(Trifluoromethyl)-5-(((S)-1-((S)-1-(5-(5-(trifluoromethyl)pyrimidin-2-yl)-4,5,6,7-tetrahydropyrazolo[1,5-a]pyrazin-2-yl)ethoxy)propan-2-yl)amino)pyridazin-3(2H)-one]",< 50,< 10,
"C[C@@H](CO[C@H](C)c1cc2n(n1)CCN(c1ncc(C(F)(F)F)cn1)C2)Nc1cn[nH]c(=O)c1C(F)(F)F [Compound 3-II, 4-(Trifluoromethyl)-5-(((S)-1-((R)-1-(5-(5-(trifluoromethyl)pyrimidin-2-yl)-4,5,6,7-tetrahydropyrazolo[1,5-a]pyrazin-2-yl)ethoxy)propan-2-yl)amino)pyridazin-3(2H)-one]",,50 to 100,
"C[C@@H](COCc1cc2n(n1)CCN(c1cnc(C(F)(F)F)cn1)C2)Nc1cn[nH]c(=O)c1C(F)(F)F [Compound 5, (S)-4-(trifluoromethyl)-5-((1-((5-(5-(trifluoromethyl)pyrazin-2-yl)-4,5,6,7-tetrahydropyrazolo[1,5-a]pyrazin-2-yl)methoxy)propan-2-yl)amino)pyridazin-3(2H)-one]",< 50,< 10,
"C[C@@H](COCc1nc2n(n1)CCN(c1ncc(C(F)(F)F)cn1)C2)Nc1cn[nH]c(=O)c1C(F)(F)F [Compound 9, (S)-4-(trifluoromethyl)-5-((1-((7-(5-(trifluoromethyl)pyrimidin-2-yl)-5,6,7,8-tetrahydro-[1,2,4]triazolo[1,5-a]pyrazin-2-yl)methoxy)propan-2-yl)amino)pyridazin-3(2H)-one]",< 50,10 to 50,half-life at 0.5 μM [1]: > 0.5 h
"C[C@@H](COCc1cc2n(n1)CCN(c1ccc(C(F)(F)F)cn1)C2=O)Nc1cn[nH]c(=O)c1C(F)(F)F [Compound 11, (S)-2-((2-((6-oxo-5-(trifluoromethyl)-1,6-dihydropyridazin-4-yl)amino)propoxy)methyl)-5-(5-(trifluoromethyl)pyridin-2-yl)-6,7-dihydropyrazolo[1,5-a]pyrazin-4(5H)-one]",50 to 100,,half-life at 0.5 μM [1]: > 1.67 h
"C[C@@H](COCc1nn2c(c1Cl)CN(c1ncc(C(F)(F)F)cn1)CC2)Nc1cn[nH]c(=O)c1C(F)(F)F [Compound 13, (S)-5-((1-((3-chloro-5-(5-(trifluoromethyl)pyrimidin-2-yl)-4,5,6,7-tetrahydropyrazolo[1,5-a]pyrazin-2-yl)methoxy)propan-2-yl)amino)-4-(trifluoromethyl)pyridazin-3(2H)-one]",< 50,10 to 50,"efflux ratio at 2 h, 1 μM (MDR1): 2.28; Papp A→B at 2 h, 1 μM (MDR1): 6.67 ×10⁻⁶ cm/s; Papp B→A at 2 h, 1 μM (MDR1): 14.8 ×10⁻⁶ cm/s"
"C[C@@H](COCc1nn2c(c1Cl)CN(c1cnc(C(F)(F)F)cn1)CC2)Nc1cn[nH]c(=O)c1C(F)(F)F [Compound 14, (S)-5-((1-((3-chloro-5-(5-(trifluoromethyl)pyrazin-2-yl)-4,5,6,7-tetrahydropyrazolo[1,5-a]pyrazin-2-yl)methoxy)propan-2-yl)amino)-4-(trifluoromethyl)pyridazin-3(2H)-one]",50 to 100,,
"C[C@@H](COCc1nn2c(c1C(F)(F)F)CN(c1ncc(C(F)(F)F)cn1)CC2)Nc1cn[nH]c(=O)c1C(F)(F)F [Compound 19, (S)-4-(trifluoromethyl)-5-((1-((3-(trifluoromethyl)-5-(5-(trifluoromethyl)pyrimidin-2-yl)-4,5,6,7-tetrahydropyrazolo[1,5-a]pyrazin-2-yl)methoxy)propan-2-yl)amino)pyridazin-3(2H)-one]",< 50,,
"[2H]C([2H])(OC[C@H](C)Nc1cn[nH]c(=O)c1C(F)(F)F)c1cc2n(n1)CCN(c1cnc(C(F)(F)F)cn1)C2([2H])[2H] [Compound 21, (S)-4-(trifluoromethyl)-5-((1-((5-(5-(trifluoromethyl)pyrazin-2-yl)-4,5,6,7-tetrahydropyrazolo[1,5-a]pyrazin-2-yl-4,4-d2)methoxy-d2)propan-2-yl)amino)pyridazin-3(2H)-one]",< 50,< 10,
"[2H]C([2H])(OC[C@H](C)Nc1cn[nH]c(=O)c1C(F)(F)F)c1cc2n(n1)CCN(c1ccc(C#N)cn1)C2([2H])[2H] [Compound 23, (S)-6-(2-((2-((6-oxo-5-(trifluoromethyl)-1,6-dihydropyridazin-4-yl)amino)propoxy)methyl-d2)-6,7-dihydropyrazolo[1,5-a]pyrazin-5(4H)-yl-4,4-d2)nicotinonitrile]",50 to 100,,
"[2H]c1c(COC[C@H](C)Nc2cn[nH]c(=O)c2C(F)(F)F)nn2c1CN(c1ncc(C(F)(F)F)cn1)CC2 [Compound 25, (S)-4-(trifluoromethyl)-5-((1-((5-(5-(trifluoromethyl)pyrimidin-2-yl)-4,5,6,7-tetrahydropyrazolo[1,5-a]pyrazin-2-yl-d)methoxy)propan-2-yl)amino)pyridazin-3(2H)-one]",< 50,,
"C[C@@H](COCc1nc2n(n1)CCN(c1ccc(C(F)(F)F)cn1)C2)Nc1cn[nH]c(=O)c1C(F)(F)F [Compound 26, (S)-4-(trifluoromethyl)-5-((1-((7-(5-(trifluoromethyl)pyridin-2-yl)-5,6,7,8-tetrahydro[1,2,4]triazolo[1,5-a]pyrazin-2-yl)methoxy)propan-2-yl)amino)pyridazin-3(2H)one]",< 50,,half-life at 0.5 μM [1]: > 1.67 h
"O=c1[nH]ncc(N2CCC[C@H]2COCc2nc3n(n2)CCN(c2ncc(C(F)(F)F)cn2)C3)c1C(F)(F)F [Compound 28, (S)-4-(trifluoromethyl)-5-(2-(((7-(5-(trifluoromethyl)pyrimidin-2-yl)-5,6,7,8-tetrahydro-[1,2,4]triazolo[1,5-a]pyrazin-2-yl)methoxy)methyl)pyrrolidin-1-yl)pyridazin-3(2H)-one]",50 to 100,,
C[C@@H](COCc1cc2n(n1)CCN(c1ncc(C(F)(F)F)s1)C2)Nc1cn[nH]c(=O)c1C(F)(F)F [Compound 30],50 to 100,,
"CC[C@@H](COCc1nc2n(n1)CCN(c1ncc(C(F)(F)F)cn1)C2)Nc1cn[nH]c(=O)c1C(F)(F)F [Compound 37, (S)-4-(trifluoromethyl)-5-((1-((7-(5-(trifluoromethyl)pyrimidin-2-yl)-5,6,7,8-tetrahydro-[1,2,4]triazolo[1,5-a]pyrazin-2-yl)methoxy)butan-2-yl)amino)pyridazin-3(2H)-one]",,,half-life at 0.5 μM [1]: > 1.67 h
"CSc1cnc(N2CCn3nc(COC[C@H](C)Nc4cn[nH]c(=O)c4C(F)(F)F)cc3C2)nc1 [Compound 39, (S)-5-((1-((5-(5-(methylthio)pyrimidin-2-yl)-4,5,6,7-tetrahydropyrazolo[1,5-a]pyrazin-2-yl)methoxy)propan-2-yl)amino)-4-(trifluoromethyl)pyridazin-3(2H)-one]",< 50,,"efflux ratio at 2 h, 1 μM (MDR1): 4.09; Papp A→B at 2 h, 1 μM (MDR1): 8.82 ×10⁻⁶ cm/s; Papp B→A at 2 h, 1 μM (MDR1): 35.5 ×10⁻⁶ cm/s"

# Source: US20240158406A1, “PIPERAZINE DERIVATIVE AND USE THEREOF IN MEDICINE” (CHENGDU BAIYU PHARMACEUTICAL CO., LTD., priority 2021, published 2024)
